Test results reported in US12396459B2, “Synergistically effective herbicide composition comprising pyridate and at least one defined 4-HPPD inhibitor” (BELCHIM CROP PROTECTION NV, priority 2018, dated 2025).

Tests used:
Assay type in all cases: in vivo
Matricaria chamomilla = assay: Examples 6-8 herbicidal effect: MATCH; settings: 7 DAA
[1] = tested on: unwanted vegetation (UVEG); assay: Field trials Examples 1-5 (incl. Table 1), post-emergence on unwanted vegetation in maize; settings: 14-20 DAA
Procedure: (§1) Herbicidal activity of herbicide compositions according to the first aspect of the present invention with regard to different types of unwanted vegetation was determined during trials performed on test fields (field trials). Individual compositions comprising pyridate and individual compositions comprising a defined 4-HPPD inhibitor are compared with a herbicide composition according to the invention comprising both pyridate and a defined 4-HPPD inhibitor. The expected activity of the combination of the active compounds pyridate and a defined 4-HPPD inhibitor is calculated according to above mentioned calculation method by Colby, in order to evaluate a synergistic effect between pyridate and a defined 4-HPPD inhibitor.
(§2) Herbicidal activity was determined by applying herbicide compositions on emerged unwanted vegetation on fields where maize was cultivated. Pyridate and a defined 4-HPPD inhibitor were applied as a tank mixture by mixing these active compounds prior to use in a spray tank. The corresponding mixture was in the form of a spray liquor. Besides, spray liquors of individual compositions comprising pyridate and of individual compositions comprising a defined 4-HPPD inhibitor were used. Test plants of unwanted vegetation with a growth stage corresponding to BBCH 10-18 (according to the extended BBCH-scale) were sprayed with the active compound preparations such that particular desired amounts of active compounds are applied per unit area. Spray liquor was diluted with water to arrive at an application volume of 50 to 450 L/ha. At a specified number of days after application (DAA), the degree of damage to the unwanted vegetation is rated in % of plants of unwanted vegetation that were killed, which was assessed by visually controlling the plants.

Convolvulus arvensis = assay: Field trial post-emergence in maize: CONAR
Procedure: as §1, §2
(§3) Example 1 concerns a herbicide composition comprising a combination of pyridate and mesotrione, which was applied post-emergence on unwanted vegetation on a field where maize was cultivated, according to the test conditions mentioned above.

[2] = tested on: Brassica rapa Canola cultivars; assay: Field trial post-emergence in maize: BRSRC; settings: 13-14 DAA, # = 1
Procedure: as §1, §2

Setaria verticillata = assay: Examples 6-8 herbicidal effect: SETVE; settings: 7 DAA
Kickxia elatine = assay: Field trial post-emergence in maize: KICEL
Procedure: as §1, §2, §3

Xanthium spinosum = assay: Field trial post-emergence in maize: XANSP; settings: 7-14 DAA; # = 3; g a.c./ha: PYR 300, MES 100, PYR + MES 300 + 90
Procedure: as §1
(§4) Herbicidal activity was determined by applying herbicide compositions on emerged unwanted vegetation on fields where maize was cultivated. Pyridate and a defined 4-HPPD inhibitor were applied as a tank mixture by mixing these active compounds prior to use in a spray tank. The corresponding mixture was in the form of a spray liquor. […] At a specified number of days after application (DAA), the degree of damage to the unwanted vegetation is rated in % of plants of unwanted vegetation that were killed, which was assessed by visually controlling the plants.

Galinsoga parviflora = assay: Field trial post-emergence in maize: GASPA; settings: 31-48 DAA; # = 3; g a.c./ha: PYR 300, MES 100, PYR + MES 300 + 90
Procedure: as §1, §4

Polygonum aviculare = assay: Field trial post-emergence in maize: POLAV
Procedure: as §1, §2, §3

Lamium purpureum = assay: Field trial post-emergence in maize: LAMPU
Procedure: as §1, §2, §3

Brassica napus = assay: Field trial post-emergence in maize: BRSNN; settings: # = 1, g a.c./ha: PYR 300, MES 100, PYR + MES 300 + 90
Procedure: as §1, §2

Persicaria maculosa = assay: Field trial post-emergence in maize: POLPE; settings: for herbicidal effect (h.e.): g a.c./ha: PYR 300, MES 100, PYR + MES 300 + 90
Procedure: as §1, §2

Solanum nigrum = assay: Field trial post-emergence in maize: SOLNI; settings: for herbicidal effect (h.e.): g a.c./ha: PYR 300, MES 100, PYR + MES 300 + 90
Procedure: as §1, §2

Mercurialis annua = assay: Field trial post-emergence in maize: MERAN
Procedure: as §1, §2, §3

Digitaria sanguinalis = assay: Field trial post-emergence in maize: DIGSA; settings: g a.c./ha: PYR 300, MES 100, PYR + MES 300 + 90
Procedure: as §1, §2

Viola arvensis = assay: Field trial post-emergence in maize: VIOAR
Procedure: as §1, §2, §3

Thlaspi arvense = assay: Field trial post-emergence in maize: THLAR; settings: # = 1, g a.c./ha: PYR 300, MES 100, PYR + MES 300 + 90
Procedure: as §1, §2

[3] = g a.c./ha: PYR 10, TEM 22, PYR + TEM 10 + 100
[4] = g a.c./ha: PYR 300, PYR + MES 300 + 80
[5] = g a.c./ha: PYR 300, SCT 300, PYR + SCT 300 + 300
[6] = g a.c./ha: PYR 300, TEM 100, PYR + TEM 300 + 100
[7] = g a.c./ha: PYR 450, SCT 450, PYR + SCT 300 + 450
[8] = g a.c./ha: PYR 600, PYR + SCT 600 + 300
[9] = g a.c./ha: PYR 900, TEM 44, PYR + TEM 900 + 44

With `CCCCCCCCSC(=O)Oc1cc(Cl)nnc1-c1ccccc1` [PYR, (6-chloro-3-phenylpyridazin-4-yl) octylsulfanylformate] the “herbicidal effect (h.e.)” value (Matricaria chamomilla; [3]) was 0%, the “herbicidal effect (h.e.)” value (Matricaria chamomilla; [4]) was 0% and the “herbicidal effect (h.e.)” value (Matricaria chamomilla; [5]) was 0%. The “herbicidal effect (h.e.)” value (Matricaria chamomilla; [6]) was 0%, the “herbicidal effect (h.e.)” value (Matricaria chamomilla; [7]) was 0% and the “herbicidal effect (h.e.)” value (Matricaria chamomilla; [8]) was 0%. The “herbicidal effect (h.e.)” value (Matricaria chamomilla; [9]) was 0%, the “PYR h.e. (%)” value ([1]; VIOAR (Viola arvensis), # = 3, first VIOAR block (r259-264), PYR 900 g a.c./ha) was 50% and the “PYR h.e. (%)” value ([1]; VIOAR (Viola arvensis), # = 3, second VIOAR block (r265-272), PYR 300 g a.c./ha) was 27%. For the same compound, the “PYR h.e. (%)” value ([1]; VIOAR, # = 3, second VIOAR block (r265-272), PYR 600 g a.c./ha) was 34%, the “PYR h.e. (%)” value ([1]; VIOAR, # = 3, second VIOAR block (r265-272), PYR 900 g a.c./ha) was 47% and the PYR h.e. (Convolvulus arvensis; CONAR 14-20 DAA 300 g a.c./ha) was 35%. It also gave a PYR h.e. (Convolvulus arvensis; CONAR 14-20 DAA 600 g a.c./ha) of 40%, a PYR h.e. (Convolvulus arvensis; CONAR 14-20 DAA 900 g a.c./ha) of 45% and a PYR h.e. (Convolvulus arvensis; CONAR 24-31 DAA 600 g a.c./ha) of 48%. The PYR h.e. (Convolvulus arvensis; CONAR 24-31 DAA 900 g a.c./ha) was 45%, the “herbicidal effect (h.e.)” value ([2]; g a.c./ha: PYR 450, MES 144, PYR + MES 450 + 144) was 48% and the “herbicidal effect (h.e.)” value ([2]; g a.c./ha: PYR 450, TOP 12.4, PYR + TOP 450 + 12.4) was 48%. The “herbicidal effect (h.e.)” value (Setaria verticillata; [3]) was 0%, the “herbicidal effect (h.e.)” value (Setaria verticillata; [4]) was 0% and the “herbicidal effect (h.e.)” value (Setaria verticillata; [5]) was 10%. The “herbicidal effect (h.e.)” value (Setaria verticillata; [6]) was 0%, the “herbicidal effect (h.e.)” value (Setaria verticillata; [7]) was 7% and the “herbicidal effect (h.e.)” value (Setaria verticillata; [8]) was 10%. For the same compound, the “herbicidal effect (h.e.)” value (Setaria verticillata; [9]) was 0%, the PYR h.e. (Kickxia elatine; KICEL 14-20 DAA 300 g a.c./ha) was 0% and the PYR h.e. (Kickxia elatine; KICEL 14-20 DAA 600 g a.c./ha) was 0%. For the same compound, the PYR h.e. (Kickxia elatine; KICEL 14-20 DAA 900 g a.c./ha) was 0%, the PYR h.e. (Kickxia elatine; KICEL 24-31 DAA 300 g a.c./ha) was 0% and the PYR h.e. (Kickxia elatine; KICEL 24-31 DAA 600 g a.c./ha) was 0%. The PYR h.e. (Kickxia elatine; KICEL 24-31 DAA 900 g a.c./ha) was 0%, the “herbicidal effect (h.e.)” value (Xanthium spinosum) was 5% and the “herbicidal effect (h.e.)” value (Galinsoga parviflora) was 40%. For the same compound, the PYR h.e. (Polygonum aviculare; POLAV 14-20 DAA 300 g a.c./ha) was 18%, the PYR h.e. (Polygonum aviculare; POLAV 24-31 DAA 300 g a.c./ha) was 17% and the PYR h.e. (Lamium purpureum; LAMPU 14-20 DAA 300 g a.c./ha) was 28%. For the same compound, the PYR h.e. (Lamium purpureum; LAMPU 14-20 DAA 600 g a.c./ha) was 60%, the PYR h.e. (Lamium purpureum; LAMPU 14-20 DAA 900 g a.c./ha) was 65% and the PYR h.e. (Lamium purpureum; LAMPU 24-31 DAA 300 g a.c./ha) was 14%. For the same compound, the PYR h.e. (Lamium purpureum; LAMPU 24-31 DAA 600 g a.c./ha) was 46%, the PYR h.e. (Lamium purpureum; LAMPU 24-31 DAA 900 g a.c./ha) was 67% and the “herbicidal effect (h.e.)” value (Brassica napus; 7-14 DAA) was 50%. The “herbicidal effect (h.e.)” value (Brassica napus; 18-28 DAA) was 11%, the “herbicidal effect (h.e.)” value (Brassica napus; 31-48 DAA) was 6% and the “herbicidal effect (h.e.)” value (Persicaria maculosa; 7-14 DAA, # = 3) was 42%. For the same compound, the “herbicidal effect (h.e.)” value (Persicaria maculosa; 31-48 DAA, # = 4) was 32%, the PYR h.e. (Persicaria maculosa; POLPE 14-20 DAA 300 g a.c./ha) was 15% and the PYR h.e. (Persicaria maculosa; POLPE 14-20 DAA 600 g a.c./ha) was 23%. For the same compound, the PYR h.e. (Persicaria maculosa; POLPE 14-20 DAA 900 g a.c./ha) was 28%, the PYR h.e. (Persicaria maculosa; POLPE 24-31 DAA 300 g a.c./ha) was 17% and the PYR h.e. (Persicaria maculosa; POLPE 24-31 DAA 600 g a.c./ha) was 33%. The PYR h.e. (Persicaria maculosa; POLPE 24-31 DAA 900 g a.c./ha) was 32%, the “herbicidal effect (h.e.)” value (Solanum nigrum; 18-28 DAA, # = 7) was 58% and the “herbicidal effect (h.e.)” value (Solanum nigrum; 31-48 DAA, # = 6) was 55%. For the same compound, the PYR h.e. (Solanum nigrum; SOLNI 14-20 DAA 300 g a.c./ha) was 75%, the PYR h.e. (Solanum nigrum; SOLNI 14-20 DAA 600 g a.c./ha) was 88% and the PYR h.e. (Mercurialis annua; MERAN 14-20 DAA 300 g a.c./ha) was 48%. The PYR h.e. (Mercurialis annua; MERAN 14-20 DAA 600 g a.c./ha) was 78%, the PYR h.e. (Mercurialis annua; MERAN 24-31 DAA 300 g a.c./ha) was 10% and the PYR h.e. (Mercurialis annua; MERAN 24-31 DAA 600 g a.c./ha) was 33%. The PYR h.e. (Mercurialis annua; MERAN 24-31 DAA 900 g a.c./ha) was 80%, the “herbicidal effect (h.e.)” value (Digitaria sanguinalis; 7-14 DAA, # = 2) was 30% and the “herbicidal effect (h.e.)” value (Digitaria sanguinalis; 18-28 DAA, # = 2) was 24%. The “herbicidal effect (h.e.)” value (Digitaria sanguinalis; 31-48 DAA, # = 1) was 48%, the PYR h.e. (Viola arvensis; VIOAR 14-20 DAA 300 g a.c./ha) was 31% and the PYR h.e. (Viola arvensis; VIOAR 14-20 DAA 600 g a.c./ha) was 34%. The PYR h.e. (Viola arvensis; VIOAR 14-20 DAA 900 g a.c./ha) was 50%, the “herbicidal effect (h.e.)” value (Thlaspi arvense; 7-14 DAA) was 28% and the “herbicidal effect (h.e.)” value (Thlaspi arvense; 18-28 DAA) was 19%.
